Data as given in paper PMC12529881, “Quantitative analysis of inhibitor‐induced assembly disruption in human UDP‐GlcNAc 2‐epimerase using mass photometry” (Protein Science : A Publication of the Protein Society, 2025).
Read-outs that look alike come from different tables or passages of the source. One block for each molecule: values may come before it.

Legend:
[1] = target: T1, human UDP‐GlcNAc 2‐epimerase (GNE) (Homo sapiens, UniProt Q9Y223); assay: Mass photometry GNE assembly inhibition (inhibitor titration against 800 nM GNE); format: biochemical; conditions: for IC50 / effect on dimeric assembly: 800 nM GNE; for effect on dimeric assembly: absence of UDP‐GlcNAc; for Ki: from IC50 ^S (T) by modified Cheng–Prusoff equation (Equation S4), read-out: K i ^S (T)
T1 construct: The MNK subunit connects to the C‐terminus of the GNE subunit; made in house; host or cells: Escherichia coli BL21 (DE3)
T1 sequence (Q9Y223 1-405 limits assumed): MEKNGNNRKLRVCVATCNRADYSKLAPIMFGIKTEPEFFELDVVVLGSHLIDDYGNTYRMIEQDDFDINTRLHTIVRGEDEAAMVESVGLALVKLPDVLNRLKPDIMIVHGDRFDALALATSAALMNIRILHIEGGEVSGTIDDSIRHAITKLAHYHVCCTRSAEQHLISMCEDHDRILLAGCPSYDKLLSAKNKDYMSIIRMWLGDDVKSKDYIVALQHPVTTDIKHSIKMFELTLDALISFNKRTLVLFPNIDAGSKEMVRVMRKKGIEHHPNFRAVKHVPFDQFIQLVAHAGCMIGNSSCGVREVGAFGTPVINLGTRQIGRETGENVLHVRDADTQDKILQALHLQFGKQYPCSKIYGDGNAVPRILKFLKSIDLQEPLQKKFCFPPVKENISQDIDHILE
Method: All MP measurements were conducted using a OneMP (Refeyn) instrument equipped with a 525 nm green laser. To minimize background noise, the instrument was placed on an active vibration isolation system (Accurion i4 Series, Park Systems). High‐precision glass coverslips (Paul Marienfeld GmbH & Co. KG, Cat# 0107222) were thoroughly cleaned before use to ensure optimal measurement conditions. Prior to MP measurements, samples were incubated in phosphate buffer (DPBS[−|−], Gibco, Cat# 14190144) and low‐binding tubes for 30 min in a ThermoMixer C (Eppendorf, Cat# 5382000015) at 20°C to allow binding equilibrium to be reached. Immediately before measurement, a 50 nM working solution was prepared. Then, 5 μL of the working solution was added to a 15 μL DPBS (−|−) droplet on the glass coverslip, followed by mixing upon pipetting to ensure proper distribution before measurements began immediately. […] For the measurements, a regular field of view was used. Data acquisition was performed over a 60‐s detection period with manual focus adjustment. Data were recorded using the software AquireMP (2024 R2, Refeyn) and referenced against a glycinin mass standard in DPBS (−|−). The glycinin standard, derived from defatted soybean flour, forms characteristic trimers (160 kDa), hexamers (320 kDa), nonamers (480 kDa), and dodecamers (640 kDa). Purified and lyophilized glycinin was kindly provided by the group of Dr. Rumiana Dimova (Chen et al., [2020]; Mangiarotti et al., [2025]). Data analysis and graphical visualization were performed using DiscoverMP (2024 R2, Refeyn) and GraphPad Prism 10 (10.1.1, Dotmatics). All experiments were conducted in at least three independent replicates, each performed as technical triplicates.
Twofold serial dilutions of the inhibitors (500–7.81 μM) were titrated against a constant GNE concentration (800 nM), either in the presence or absence of UDP‐GlcNAc (100 μM). The GNE and substrate concentrations were selected based on titration experiments ensuring binding saturation and the establishment of an assembly equilibrium. Prior to measurements, samples were incubated for 30 min at 20°C to allow equilibrium to be reached. IC50 values were determined from protein fraction vs. inhibitor concentration plots and fitted using a Hill‐based logistic function (Equation S3). Subsequently, K i values for GNE inhibitors were derived from a Cheng–Prusoff equation accounting for allostery (Equation S4), detailed in Supporting Information S1.

[2] = target: T1, human UDP‐GlcNAc 2‐epimerase (GNE); assay: Mass photometry Schild experiments and OMAM global fit (GNE tetramer inhibition by C15); format: binding
Method: (§1) All MP measurements were conducted using a OneMP (Refeyn) instrument equipped with a 525 nm green laser. To minimize background noise, the instrument was placed on an active vibration isolation system (Accurion i4 Series, Park Systems). High‐precision glass coverslips (Paul Marienfeld GmbH & Co. KG, Cat# 0107222) were thoroughly cleaned before use to ensure optimal measurement conditions. Prior to MP measurements, samples were incubated in phosphate buffer (DPBS[−|−], Gibco, Cat# 14190144) and low‐binding tubes for 30 min in a ThermoMixer C (Eppendorf, Cat# 5382000015) at 20°C to allow binding equilibrium to be reached. Immediately before measurement, a 50 nM working solution was prepared. Then, 5 μL of the working solution was added to a 15 μL DPBS (−|−) droplet on the glass coverslip, followed by mixing upon pipetting to ensure proper distribution before measurements began immediately. This approach provided high reproducibility in our results. For the measurements, a regular field of view was used. Data acquisition was performed over a 60‐s detection period with manual focus adjustment. Data were recorded using the software AquireMP (2024 R2, Refeyn) and referenced against a glycinin mass standard in DPBS (−|−). The glycinin standard, derived from defatted soybean flour, forms characteristic trimers (160 kDa), hexamers (320 kDa), nonamers (480 kDa), and dodecamers (640 kDa). Purified and lyophilized glycinin was kindly provided by the group of Dr. Rumiana Dimova (Chen et al., [2020]; Mangiarotti et al., [2025]). Data analysis and graphical visualization were performed using DiscoverMP (2024 R2, Refeyn) and GraphPad Prism 10 (10.1.1, Dotmatics). All experiments were conducted in at least three independent replicates, each performed as technical triplicates.
To assess the binding affinity of inhibitors to GNE, modified Schild experiments were performed using MP. Serial dilutions of UDP‐GlcNAc (800 μM to 100 nM) were titrated against a constant GNE concentration (800 nM) in the presence of varying concentrations of inhibitor C15 (200 μM to 2 nM). Enzyme and substrate concentrations were chosen based on prior titration experiments (Figure 2c,g) to ensure a stable oligomeric equilibrium. Inhibitor concentrations were selected around the IC50 to enable accurate response characterization. Samples were incubated for 30 min at 20°C to ensure equilibration before measurement. EC50 values were obtained from substrate titration curves (tetramer fraction vs. UDP‐GlcNAc concentration), fitted using a Hill‐based function (Equation S3). The resulting EC50 values in the presence of inhibitor (EC50,Inh) were converted into logarithmic concentration ratios (log(CR‐1)) and plotted against the corresponding logarithmic inhibitor concentrations to generate a Schild plot. Data points were then fitted using a linear Schild equation (Equation S5), as described in the Supporting Information S1. Further cooperative factors were obtained from fitting the substrate concentration‐dependent response curves globally with an OMAM model (Equation S6) (Jakubík et al., [2020]).

[3] = target: T1, human UDP‐GlcNAc 2‐epimerase (GNE); assay: Mass photometry affinity measurements of GNE subunits / substrate titration; format: binding
Method: as §1
To determine the intermolecular protein affinities of GNE subunits, their assembly distribution was assessed using MP experiments. In the absence of substrate, serial GNE dilutions (50 μM to 50 nM) were performed to evaluate GNE subunit interactions. In the presence of UDP‐GlcNAc, intermolecular affinity changes were assessed through two titration approaches: First, different concentrations of UDP‐GlcNAc (500–7.81 μM) were titrated against a fixed concentration of GNE (0.8 μM). Second, different concentrations of GNE (0.2–10 μM) were titrated against a fixed concentration of UDP‐GlcNAc (100 μM). KD values were obtained from binding curves (Figure S4), fitted using a Hill‐based logistic model (Equation S1) (Fineberg et al., [2020]). The following dissociation constants were determined: K D ^0 (M:M) and K D ^0 (D:D) in the absence of UDP‐GlcNAc, K D ^S (D:D) and K D ^S (M:M) in the presence of UDP‐GlcNAc.

[4] = tested on: GNE; design: method as in Chen et al., 2016; conditions: ref Chen et al., 2016; cited from earlier work
[5] = target: the molecule itself; assay: mass photometry
[6] = target: the molecule itself; assay: mass photometry; remark: listed apart in the source
[7] = 100 μM UDP‐GlcNAc, DPBS pH 7.4, 20°C, Hill n fixed 1.3, read-out: IC50 ^S (T), GNE tetramer destabilization
[8] = absence of UDP-GlcNAc, read-out: IC50^0(D), GNE dimer inhibition
[9] = presence of 100 µM UDP-GlcNAc, read-out: IC50^S(D), GNE dimer inhibition
[10] = substrate titration against 800 nM GNE

Molecule: CC(=O)N[C@H]1[C@@H](OP(=O)([O-])OP(=O)([O-])OC[C@H]2O[C@@H](n3ccc(=O)[nH]c3=O)[C@H](O)[C@@H]2O)O[C@H](CO)[C@@H](O)[C@@H]1O.[Na+].[Na+] [UDP‐GlcNAc, Uridine diphosphate N‐acetyglucosamine disodium salt]
increase of dimer–dimer affinity by substrate binding [3]: 98 fold | Kd ([3]; from tetramer curve, substrate titration against 800 nM GNE, Equation S2, read-out: substrate affinity K S): 34.6 ± 3 µM | Kd ([3]; presence of 100 μM UDP‐GlcNAc, fit Equation S1, read-out: K D ^S (D:D), GNE dimer–dimer interaction): 0.0981 ± 0.0091 µM | Kd ([3]; presence of 100 μM UDP‐GlcNAc, fit Equation S1, read-out: K D ^S (M:M), GNE monomer–monomer interaction): 0.0372 ± 0.0075 µM | Kd ([3]; presence of 100 μM UDP‐GlcNAc, mean calculated by law of mass action, read-out: K D ^S Calc.(D:D)): 0.221 ± 0.0272 µM | Kd ([3]; presence of 100 μM UDP‐GlcNAc, mean calculated by law of mass action, read-out: K D ^S Calc.(M:M)): 0.0653 ± 0.0124 µM | Hill coefficient n of tetramer fraction [3, 10]: 1.3 | maximal response E max (maximal tetramer fraction) [3, 10]: 68.3% | K M of GNE [4]: 33.1 ± 4.2 µM | operational efficacy τ S (substrate) ([2]; OMAM fit): 17.6

B1: GNE (UDP-GlcNAc 2-epimerase), monomer UDP-GlcNAc 2-epimerase domain (protein)
chain: T1 sequence (Q9Y223 1-405 limits assumed)
Kd [5]: 0.0126 µM

B2: GNE (UDP-GlcNAc 2-epimerase), dimer UDP-GlcNAc 2-epimerase domain (protein)
chain: T1 sequence (Q9Y223 1-405 limits assumed)
Kd [6]: 9.6 µM

Continued, in another order:

IC50 [1, 7]: 19.4 ± 4.2 µM | IC50 [1, 8]: > 1000 µM | IC50 [1, 9]: 472 ± 42.5 µM | Ki ([1]; 100 μM UDP‐GlcNAc): 0.508 ± 0.182 µM
Molecule: O=c1nc(/C=C/c2cc([N+](=O)[O-])ccc2Cl)cc(C(F)(F)F)[nH]1 [C13, (E)‐4‐(2‐chloro‐5‐nitrostyryl)‐6‐(trifluoromethyl)pyrimidin‐2(1H)‐one]
effect on dimeric assembly [1]: significantly disrupted the dimeric assembly

IC50 [1, 7]: 3.1 ± 1.2 µM | IC50 [1, 8]: 21 ± 2.6 µM | IC50 [1, 9]: 173 ± 100 µM | tetramer inhibition at single concentration ([1]; 31.25 μM C15, 800 nM GNE, 100 μM UDP‐GlcNAc): full tetramer inhibition | Ki ([1]; 100 μM UDP‐GlcNAc): 0.0826 ± 0.0397 µM | K B (OMAM) fold lower than K B,app (Schild) [2]: ~ 28 fold | operational cooperativity factor β ([2]; OMAM fit): ≈ 0 | operational efficacy τ I (inhibitor) ([2]; OMAM fit): 0.02 | binding cooperativity factor ɑ ([2]; OMAM fit, between C15 and substrate binding): 0.02 | Kd ([2]; OMAM global fit (Equation S6), read-out: inhibitor affinity K B): 0.0252 µM | Schild slope m ([2]; linear region 0.8–10 μM C15, Equation S5): 1.1 | Kd ([2]; x‐intercept of linear Schild fit (linear region 0.8–10 μM C15), 800 nM GNE, read-out: apparent affinity K B,app): ~0.7 µM
Molecule: COc1c(Br)cc(Br)cc1/C=C/c1cc(C(F)(F)F)[nH]c(=O)n1 [C15, (E)‐4‐(3,5‐dibromo‐2‐methoxystyryl)‐6‐(trifluoromethyl)pyrimidin‐2(1H)‐one]
effect on dimeric assembly [1]: significantly disrupted the dimeric assembly
